Results as given in patent US10473667B2, “Methods apparatuses and systems for detecting and quantifying phosphoproteins” (Oregon Health & Science University, priority 2012, dated 2019).

Legend:
[1] = test system: STAT5*; test: QD-STAT5* / QD-pSTAT5 probe assay in K562 CML cells; format: cell-based; conditions: clonal K562 CML cells, FIG. 11A
From the text: Relative amounts of bound QD probes in each condition were estimated using the algorithms described above.
An epifluorescent microscope was used to acquire images of cells labeled with QD-pCRKL and QD-pSTAT5 probes, including are digital images of tumor cells (FIG. 10A), tumor cells treated with dasatinib (FIG. 10B), and control cells with antibody omitted (FIG. 10C), Average phosphoprotein levels were computed as the average number of QD probes/cell.

[2] = test system: STAT5*; test: QD probe assay for STAT5* in whole tumor cells; format: cell-based; conditions: tumor cells treated with Gleevec vs control (untreated) tumor cells, FIGS. 9A-9B
From the text: Briefly; control tumor cells and tumor cells treated with Gleevec™ were processed (fixing, permeabilization, blocking, washing, etc.) to specifically bind optimized concentrations of QD-anti-STAT5* antibody probes to STAT5* protein kinase. After washing, the cells were imaged in multiple slices using the imaging techniques described above, covering the entire 3D space of the cells. QD probe bound to the cells was then compiled and projected on the cell for quantification.

| Compound | heterogeneity in pSTAT5 activity (SD of QDs/cell) [1] | STAT5* activation (QD-anti-STAT5* probe binding) [2] |
| --- | --- | --- |
| CC[C@H](C)C(=O)O[C@H]1C[C@@H](C)C=C2C=C[C@H](C)[C@H](CC[C@@H]3C[C@@H](O)CC(=O)O3)[C@H]21 [lovastatin] | reduced |  |
| Cc1ccc(NC(=O)c2ccc(CN3CCN(C)CC3)cc2)cc1Nc1nccc(-c2cccnc2)n1 [Gleevec™, imatinib] |  | marked decrease in STAT5* activation |
